Measured values taken from US20230250108A1, “TETRAHYDROISOQUINOLINE COMPOUNDS AND USE THEREOF” (JIANGSU SIMCERE PHARMACEUTICAL CO., LTD., priority 2020, published 2023).

Experiments:
SDMA in Z-138 cells = experiment: Inhibitory activity on SDMA in cells (immunofluorescent assay); assay type: cell-based; settings: Homo sapiens, 48 h, 2 days, read-out: Inhibition of SDMA in cells IC50
Excerpt: Materials and cells: Z-138 cells were purchased from ATCC (USA); IMDM medium and penicillin-streptomycin were purchased from Sigma PLC. (USA); horse serum was purchased from Hyclone (USA); Hoechst antibodies were purchased from Invitrogen (USA); Alexa Fluor 488 goat anti-rabbit IgG antibodies were purchased from Invitrogen (USA); Anti-dimethyl-Arginine symmetric (SYM11) antibodies were purchased from Merck & Co., Inc. (USA); DPBS was purchased from Gibco (USA); Nonfat Dry milk was purchased from Cell Signaling Technology (USA); paraformaldehyde was purchased from Beijing Solarbio Science & Technology Co., Ltd.; 384-well plate and Echo 550 Liquid Handler were purchased from Labcyte Inc. (USA); and an ImageXpress Nano was purchased from Molecular Devices (USA).
(§1) Cell culture: Z-138 cells were cultured in an IMDM culture solution containing 10% Horse serum+1% penicillin−streptomycin at 37° C., 5% CO2. Cells in logarithmic growth phase were suitable for the experiment.
Immunofluorescent assay: The effects of the compounds on SDMA in Z-138 cells were detected by using immunofluorescence. The cells were adjusted to the concentration of 1*10^5/mL and 40 μL was inoculated in each well of the 384-well plate (4000/well) and equilibrated for 10-15 minutes at 37° C., 5% CO2. The compound was added into a 384-well plate by using the Echo 550 Liquid Handler with the final concentration of 0-300 nM (initial concentration: 300 nM, 3-fold dilution, for 10 points), and the DMSO content was 0.1%. The cell plate was placed at 37° C., 5% CO2 and incubated for 2 days. 40 μL of 8% paraformaldehyde was added into each well and incubated at room temperature for 30 minutes. The supernatant was discarded, the plate was washed with DPBS, and 40 μL of 0.5% PBST (phosphate buffer with Tween) was added into each well and incubated at room temperature for 60 minutes. The supernatant was discarded, the plate was washed with 0.05% PBST, and 40 μL of a blocking solution (1% Nonfat milk in 0.05% PBST) was added into each well and incubated at room temperature for 60 minutes. The supernatant was discarded, and 20 μL of the primary antibody (SYM11, diluted with a blocking solution at 1:500) was added into each well and maintained at 4° C. overnight. The supernatant was discarded, the plate was washed with 0.05% PBST, 20 μL of the secondary antibody (Alexa Fluor 488 goat anti-rabbit and Hoechst, diluted with a blocking solution at 1:1000 and 1:5000, respectively) was added to each well and incubated at room temperature for 60 minutes. The supernatant was discarded, the plate was washed with 0.05% PBST, and the fluorescent intensity was detected with ImageXpress Nano.

[1] = Pharmacokinetic experiment in mice; assay type: in vivo, CB17-SCID mice
Excerpt: Experimental materials: GB17-SCID mice were purchased from Beijing Vital River Laboratory Animal Technology Co., Ltd.; DMSO, HP-β-CD (Hydroxypropyl-β-cyclodextrin), MC (methyl cellulose) and acetonitrile were purchased from Merck & Co., Inc. (USA), and K2EDTA anticoagulation tubes were purchased from Jiangsu Xinkang Medical Instrument Co., Ltd.
Experiment method: Six female CB17-SCID mice (20-30 g, 4-6 weeks) were randomized into 2 groups, 3 mice/group. Group 1 was given compound 002 via tail vein injection at a dose of 2 mg/kg, and the vehicle was 5% of DMSO+95% of 10% HP-β-CD aqueous solution; and group 2 was given compound 002 orally at a dose of 10 mg/kg, and the vehicle was 0.5% MC aqueous solution. Prior to the experiment, the animals were given food and water as usual. At pre-dose and 0.083 (only for the vein injection group), 0.25, 0.5, 1, 2, 4, 6, 8 and 24 h post-dose, blood was sampled from the mice in each group from the vein. The whole blood sample collected was placed in a K2EDTA anticoagulation tube and centrifuged for 5 min (4000 rpm, 4° C.) and then the plasma was taken for detection.
10 μL of the mouse plasma sample was taken and 150 μL of acetonitrile solvent (wherein internal standard compound was contained) was added to precipitate proteins. After the mixture was vortexed for 0.5 min, centrifugation (4700 rpm, 4° C.) was performed for 15 min. The supernatant was diluted 2-fold with water containing 0.05% (v/v) formic acid and 3 μL was injected into the LC-MS/MS system (AB Sciex Triple Quad 6500+) for the quantitative detection. The concentrations of the samples were determined with the present of plasma standard curve (linear range: 0.5-1000 ng/mL) of CB17-SCID mice and quality control samples. For the preparation of 10-fold diluted samples, 2 μL of mouse plasma sample was taken and 18 μL of blank plasma was added. After the mixture was vortexed for 0.5 min, 300 μL of acetonitrile solvent (wherein internal standard compound was contained) was added to precipitate proteins. The other processing steps were identical to those for the samples not diluted.

Z-138 cells = experiment: Inhibitory activity on tumor cell proliferation (Cell-Titer Glo, 8 days); assay type: cell-based; settings: Homo sapiens, 192 h, read-out: Inhibition of cell proliferation Z-138 IC50
Procedure: Materials and cells: Z-138 cells were purchased from ATCC (USA); IMDM medium and penicillin-streptomycin were purchased from Sigma PLC. (USA); horse serum was purchased from Hyclone (USA); 96-well plate was purchased from Corning (USA); and Cell-Titer Glo reagent was purchased from Promega (USA).
as §1
Detection of cell proliferation activity: The inhibitory activities of the compounds on the proliferation of Z-138 cells were detected by using the Cell-Titer Glo reagent. The concentrations of the cells were adjusted, and 180 μL was inoculated in each well of the 96-well plate (500/well) and equilibrated for 10-15 minutes at 37° C., 5% CO2. 20 μL of a culture solution containing the compounds was added into each well with the final concentration reaching 0-300 nM (initial concentration: 300 nM, 3-fold dilution, for 10 points), and the DMSO content was 0.1%. The cell plate was placed at 37° C., 5% CO2 and incubated for 8 days. Culture solution was replaced at day 4: 100 μL of the supernatant was slowly aspirated and 100 μL of a fresh culture solution containing the compounds was provided as a supplement while the concentrations of the compounds were held constant. The cell viability was detected by using the Cell-Titer Glo reagent.

[2] = female, CB17-SCID, mouse, plasma, 10 mg/kg, Mice PO (10 mpk)

Molecule `CCN1CCN(C[C@@H](O)[C@@H]2Cc3ccccc3CN2)C(=O)c2ccc(C(=O)N3CCC4(CC3)CC(OC)C4)cc21.Cl` [Compound 002, 1-ethyl-4-((R)-2-hydroxy-2-((S)-1,2,3,4-tetrahydroisoquinolin-3-yl)ethyl)-8-(2-methoxy-7-azaspiro[3.5]nonane-7-carbonyl)-1,2,3,4-tetrahydro-5H-benzo[e][1,4]diazepin-5-one hydrochloride] has an IC50 (SDMA in Z-138 cells) of 1.4 nM, a Cl_obs ([1]; Mice IV (2 mpk)) of 61.1 ± 6.2 mL/min/kg and an F ([1]; Mice PO (10 mpk)) of 96.5 ± 20.5%. The half-life ([1]; female, CB17-SCID, mouse, plasma, 2 mg/kg, Mice IV (2 mpk)) was 3.56 ± 0.55 h, the Vd ([1]; female, CB17-SCID, mouse, plasma, 2 mg/kg, Mice IV (2 mpk), read-out: Vss—obs) was 8.2 ± 0.6 L/kg and the AUC(0-t) [1, 2] was 2650 ± 563 ng·h/mL. The Cmax [1, 2] was 827 ± 79 ng/mL, the Tmax [1, 2] was 0.33 ± 0.14 h and the half-life [1, 2] was 2.68 ± 0.2 h. The IC50 (Z-138 cells) was 2.19 nM.
